{
  "source": "patent US11793824B2",
  "about": "“Administration of nicotinamide mononucleotide in the treatment of disease” (Washington University, priority 2013, dated 2023)",
  "key": {"[1]": {"assay": "Age-associated body weight increase, 12 month-long NMN administration", "format": "in vivo, mouse", "conditions": "12 months", "method": "(§1) A 12 month-long NMN administration study using wild-type mice under a regular chow-fed condition was conducted. NMN was administered through drinking water, and two doses of NMN, 100 and 300 mg/kg body weight/day, were tested. […] To assess beneficial and possible adverse effects of NMN, a variety of physiological parameters were periodically monitored, including body weight, body temperature, food and water intake, fed and fasted blood glucose levels, fed and fasted plasma lipid panels, and glucose and insulin tolerance, in NMN-administered and control mice. Blood chemistry, blood cell counts, urine strip test, and other physiological tests including physical activity test were also checked.\nIn these experiments, NMN was administered to mice at a dosage rate of 100 mg/kg per day or 300 mg/kg per day. […] The results were analyzed with two-way RANOVA and one-way RANOVA with the unweighted linear term. All values are presented as mean±SEM (n=15, 14, and 14 for control, 100, and 300 mg/kg NMN-administered groups)."}, "NAMPT cone-CKO mice": {"test_system": "NAMPT cone-CKO mice", "assay": "ERG rescue in NAMPT cone-CKO mice", "format": "in vivo, mouse", "conditions": "NMN i.p.", "source_text": "The inventors examined the effect of selectively disrupting NAD biosynthesis within PR. The inventors utilized the cre-lox strategy to generate mice that had NAMPT conditionally deleted from either rods (NAMPT rod-CKO) or cones (NAMPT cone-CKO). The NAMPT fl/fl mice as well as the rhodopsin-cre and cone opsin-cre mice have been previously characterized. Both rod and cone cko mice are generated with normal Mendelian frequencies and are born normal with no observable systemic abnormalities (data not shown). All structural and functional analyses performed in CKO mice are analyzed in comparison to littermate controls. Rods constitute a majority of the PR neurons (97% of all photoreceptors). […] Neurosensory retinal degeneration was associated with secondary atrophy and pallor of the optic nerve (FIG. 29C).\nThese quantifiable structural and functional changes were associated with decrease in visual acuity in cone-CKO mice (FIG. 30E). Histopathologic analyses confirmed outer nuclear layer degeneration with subsequent multilayer retinal degeneration and cell death in cone-CKO mice similar to the changes seen above for rod-CKO mice. […] NMN treatment had no effect on littermate controls (FIG. 33A-B). […] Furthermore, providing NMN treatment is able to rescue PR neurons and vision."}, "[2]": {"test_system": "Nampt Ad-Cre infected NSPCs", "assay": "Nampt Ad-Cre infected neurospheres with or without NMN: NAD+, proliferation, differentiation", "format": "cell-based, mouse", "method": "NAD+ levels were determined using an HPLC system (Shimadzu) with a Supelco LC-18-T column (15 cm×[…]; Sigma), as described previously (Yoshino et al, 2011).\nNeurospheres derived from Nampt^flox/flox mice were infected with Ad5 Cre recombinase- or b-galactosidase-expressing (LacZ, control) adenoviruses at an MOI of 100. All assessments were performed at least 6 days post infection.\nNeurospheres derived from Nampt^flox/flox mice were dissociated by trypsin digestion and seeded at similar cell densities in 24-well plates with fresh growth medium. Every 24 hours, neurospheres from triplicate wells were collected, dissociated, and counted on a hemocytometer using 0.2% trypan blue exclusion to distinguish viable cells. For analysis of neurosphere diameter, the largest neurosphere in each well was imaged (20× objective) and the diameter was calculated using ImageJ. For secondary neurosphere analysis, the total number of neurospheres in each well was counted at 7 days post-plating.\nThree to five days after their first passage, neurospheres were trypsinized, washed with dissociation medium, and plated at 150,000 cells per well in 24-well plates in differentiation medium [growth medium without FGF and EGF and with BDNF (5 ng/mL, Peprotech, 450-02) on glass coverslips coated with poly-D-lysine (50 ug/mL; Sigma) and laminin (20 ug/mL; BD Biosciences)]. 6-well plates were coated with poly-D-lysine (20 ug/mL) and laminin (10 ug/mL). […] The percentage of oligodendrocyte precursor cells (OPCs) generated was analyzed after 2 d of differentiation, and the percentage of differentiated oligodendrocytes was analyzed after 6-7 d of differentiation. […]\nNampt Ad-Cre NSPCs were unable to increase their cell number between 24 and 144 hours of culture. […] Since NSPC self-renewal decisions can also contribute to cell number, the inventors assessed secondary neurosphere formation, an assay that quantifies the ability of neurosphere inhabitant cells to reformulate neurospheres upon dissociation. […]"}, "[3]": {"assay": "Insulin tolerance test in old mice", "format": "in vivo, mouse", "conditions": "100 and 300 mg/kg groups, body weight-matched, 12-month time point, 17 month-old mice", "method": "as §1\n(See Methods; Administration of NMN through Drinking Water and Determination of NMN Stability and Toxicity). As illustrated in FIG. 9A-B, insulin tolerance results from body weight-matched mice in the control and the 100 and 300 mg/kg NMN-administered groups at the 12-month time point are presented. Blood glucose levels (FIG. 9A) and percent glucose changes (FIG. 9B) after insulin injection are shown. The results were analyzed with two-way RANOVA and one-way ANOVA. All values are presented as mean±SEM (n=10-15 for each group)."}},
  "data": [
    {"compound": "NC(=O)c1ccc[n+]([C@@H]2O[C@H](COP(=O)([O-])O)[C@@H](O)[C@H]2O)c1", "note": "[NMN, nicotinamide mononucleotide]", "values": [
      {"measurement": "average percent body weight gain suppression normalized to control mice", "setting": "[1]; 100 mg/kg group", "value": 12, "unit": "%"},
      {"measurement": "average percent body weight reduction normalized to control mice", "setting": "[1]; 100 mg/kg group", "value": 4, "unit": "%"},
      {"measurement": "average percent body weight gain suppression normalized to control mice", "setting": "[1]; 300 mg/kg group", "value": 30, "unit": "%"},
      {"measurement": "average percent body weight reduction normalized to control mice", "setting": "[1]; 300 mg/kg group", "value": 9, "unit": "%"},
      {"measurement": "effect on littermate controls", "setting": "NAMPT cone-CKO mice", "value": "no effect"},
      {"measurement": "ERG function", "setting": "NAMPT cone-CKO mice; vs PBS treated cone-CKO mice", "value": "improve ERG function"},
      {"measurement": "rescue of reduction in NAD+ levels in Nampt Ad-Cre NSPCs", "setting": "[2]; NMN 100 μM, 48 hours, eight days post deletion", "value": "rescued"},
      {"measurement": "proliferative potential of Nampt Ad-Cre cells", "setting": "[2]; NMN 200 μM", "value": "fully reactivate"},
      {"measurement": "defects in differentiation (oligodendrogenesis, Nestin+ retention) of Nampt Ad-Cre NSPCs", "setting": "[2]; treatment with NMN, 6-7 days of differentiation", "value": "rescued defects in oligodendrogenesis"},
      {"measurement": "insulin sensitivity (insulin tolerance test)", "setting": "[3]", "value": "significantly enhanced insulin sensitivity"}
    ]}
  ]
}
